{"source": "patent US20240369550A1", "about": "“MACROMOLECULAR STRUCTURES AND USES THEREOF” (The Regents of the University of Michigan, priority 2015, published 2024)", "system": "DNase I", "assay": "DNase I-mediated degradation of DNA-histone structures (degradation modifier assay)", "assay_type": "biochemical, bovine", "conditions": "LL-37 approx. 0.5, 5 or 50 μM; total Sytox Green fluorescence; relative to structures lacking LL-37 treated with DNase I", "experimental": "Time-lapse microscopy and microplate photometry were utilized to measure the overall rate of degradation, and DNA-histone structures were treated with multiple concentrations of DNase I to verify the dose-dependency of this rate (FIG. 3).\n1 mg/ml DNase I (MW 31 kDa) was prepared in 10 mM Tris-HCl, 10 mM CaCl2, pH 7.5 (Tris buffer). Each well containing DNA-histone structures (as previously described) was washed 3 times with 150 μl of Tris buffer, and all solutions within each well were removed. 200 μL of the DNase I solution was then added to each well, and time-lapse fluorescent images of each well were acquired.\n1 mg/ml LL-37 (MW 4.49 kDa) and 2 mg/ml histones (both in PBS) were added to a solution of 20% w/w PEG/PBS such that the final concentration of histones was approximately 1 mg/ml, and the final concentration of LL-37 in each solution was approximately 0.5 μM, 5 μM, or 50 μM. […]\nAfter complete removal of the solutions in each well, 150 μL of DNase I solution was added to each well. Time-lapse images or measurements of total fluorescence were acquired at a rate of one measurement per minute.", "note": "Entries after “also recorded” stand apart in the source; their conditions may differ.", "data": [{"substance": "LL-37", "values": [{"measurement": "overall rate of DNase I-mediated degradation of DNA-histone structures", "result": "dose-dependent decrease in the overall rate of DNase I-mediated degradation; also recorded: inhibit the rate of DNase I mediated degradation"}]}]}
